The record followed here is patent US4243408A, “Herbicidal N-triazolylmethyl-substituted alpha-haloacetanilide” (Chevron Research Company, priority 1978, dated 1981).

Molecules are shown by their SMILES.

Holding throughout (assay type): in vivo
In assay [1] the test system is Wild Oats (Avena fatua). The experiment in a line: Post-Emergent Test, herbicidal effectiveness. Conditions: post-emergence, 504 h, 33 micrograms per cm^2, 3 weeks, 0-to-100 scale, read-out: Herbicidal Effectiveness, % Control Post, O.
In assay [2] the test system is Lambsquarter (Chenopodium album). The assay can be described thus: Post-Emergent Test, herbicidal effectiveness. To be noted: post-emergence, 504 h, 33 micrograms per cm^2, 3 weeks, 0-to-100 scale, read-out: Herbicidal Effectiveness, % Control Post, L.
For assay [3], the system named is Watergrass (Echinochloa). The experiment in a line: Post-Emergent Test, herbicidal effectiveness. Conditions: post-emergence, 504 h, 33 micrograms per cm^2, 3 weeks, 0-to-100 scale, read-out: Herbicidal Effectiveness, % Control Post, W.
The subject of assay [4] is Crabgrass (Digitaria sanguinalis). The assay can be described thus: Post-Emergent Test, herbicidal effectiveness. To be noted: post-emergence, 504 h, 33 micrograms per cm^2, 3 weeks, 0-to-100 scale, read-out: Herbicidal Effectiveness, % Control Post, C.
Assay [5] has as its system Pigweed (Amaranthus retroflexus). The experiment in a line: Post-Emergent Test, herbicidal effectiveness. Conditions: post-emergence, 504 h, 33 micrograms per cm^2, 3 weeks, 0-to-100 scale, read-out: Herbicidal Effectiveness, % Control Post, P.
In assay [6] the test system is Mustard (Brassica arvensis). The experiment in a line: Post-Emergent Test, herbicidal effectiveness. Conditions: post-emergence, 504 h, 33 micrograms per cm^2, 3 weeks, 0-to-100 scale.
In assay [7] the test system is Wild Oats (Avena fatua). The assay can be described thus: Pre-Emergent Test, herbicidal effectiveness. Conditions: pre-emergence, 504 h, 0-to-100 scale, read-out: Herbicidal Effectiveness, % Control Pre, O; for pest or weed control at 33 µg/cm2: 33 micrograms per cm^2, 3 weeks; for pest or weed control at 11 µg/cm2: 11 micrograms per cm^2, 3 weeks. The protocol:
(§1) An acetone solution of the test compound was prepared by mixing 750 mg of the compound, 220 mg of a nonionic surfactant and 25 ml of acetone. This solution was added to approximately 125 ml of water containing 156 mg of surfactant.
(§2) Seeds of the test vegetation were planted in a pot of soil and the test solution was sprayed uniformly onto the soil surface at a dose of 33 micrograms/cm^2. The pot was watered and placed in a greenhouse. […] At the end of this period, the herbicidal effectiveness of the compound was rated based on the physiological observations. A 0-to-100 scale was used, 0 representing no phytotoxicity, 100 representing complete kill.

Assay [8] deals with Lambsquarter (Chenopodium album). The assay can be described thus: Pre-Emergent Test, herbicidal effectiveness. Conditions: pre-emergence, 504 h, 0-to-100 scale, read-out: Herbicidal Effectiveness, % Control Pre, L; for pest or weed control at 33 µg/cm2: 33 micrograms per cm^2, 3 weeks. On the procedure: as §1, §2
The subject of assay [9] is Watergrass (Echinochloa). The assay can be described thus: Pre-Emergent Test, herbicidal effectiveness. Conditions: pre-emergence, 504 h, 0-to-100 scale, read-out: Herbicidal Effectiveness, % Control Pre, W; for pest or weed control at 33 µg/cm2: 33 micrograms per cm^2, 3 weeks; for pest or weed control at 11 µg/cm2: 11 micrograms per cm^2, 3 weeks. The protocol:
as §1, §2

The subject of assay [10] is Crabgrass (Digitaria sanguinalis). The assay can be described thus: Pre-Emergent Test, herbicidal effectiveness. Conditions: pre-emergence, 504 h, 0-to-100 scale, read-out: Herbicidal Effectiveness, % Control Pre, C; for pest or weed control at 33 µg/cm2: 33 micrograms per cm^2, 3 weeks. On the procedure:
as §1, §2

Assay [11] has as its system Pigweed (Amaranthus retroflexus). The experiment in a line: Pre-Emergent Test, herbicidal effectiveness. To be noted: pre-emergence, 504 h, 0-to-100 scale, read-out: Herbicidal Effectiveness, % Control Pre, P; for pest or weed control at 33 µg/cm2: 33 micrograms per cm^2, 3 weeks. On the procedure: as §1, §2
The test system of assay [12] is Mustard (Brassica arvensis). The experiment in a line: Pre-Emergent Test, herbicidal effectiveness. Conditions: pre-emergence, 504 h, 0-to-100 scale; for pest or weed control at 33 µg/cm2: 33 micrograms per cm^2, 3 weeks. The protocol: as §1, §2
Where [13] appears, read: 11 micrograms per cm^2, 3 weeks.

As to `Cc1nnc(CNc2c(C)cccc2C)o1` [Compound 1A, 2-(2,6-dimethylphenylaminomethyl)-5-methyl-1,3,4-oxadiazole], the pest or weed control at 5000 µg/mL, 33 µg/cm2 in [1], in [2], in assay [3], in assay [4], in assay [5] and in assay [6] was 0% each time. In addition, the pest or weed control at 33 µg/cm2 in assay [7], in [8], in assay [9], in assay [10], in assay [11] and in assay [12] was 0% throughout.
Regarding `Cc1nnc(CN(C(=O)CCl)c2c(C)cccc2C)o1` [Compound 1B, N-(5-methyl-1,3,4-oxadiazol-2-ylmethyl)-2,6-dimethyl-alpha-chloroacetanilide], the pest or weed control at 5000 µg/mL, 33 µg/cm2 in [1], in assay [2], in assay [3], in assay [4], in assay [5] and in assay [6] was 0% in each case. Moreover, the pest or weed control at 33 µg/cm2 is 90% in [7]; 50% in assay [8]; 100% in [9]; 100% in assay [10]; 87% in assay [11]; 45% in [12].
As for `Cc1nc(CNc2c(C)cccc2C)n[nH]1` [Compound 2A, 3-(2,6-dimethylphenylaminomethyl)-5-methyl-1,2,4-triazole], the pest or weed control at 5000 µg/mL, 33 µg/cm2 in assay [1], in assay [2], in assay [3], in assay [4], in assay [5] and in assay [6] was 0% throughout. The pest or weed control at 33 µg/cm2 in [7], in [8], in [9], in [10], in assay [11] and in assay [12] was 0% throughout.
With `Cc1nnc(CN(C(=O)CCl)c2c(C)cccc2C)[nH]1` [Compound 2B, N-(5-methyl-1,2,4-triazol-3-ylmethyl)-2,6-dimethyl-alpha-chloroacetanilide], the pest or weed control at 5000 µg/mL, 33 µg/cm2 in assay [1] worked out at 30%; in assay [2] it was 50%; in [3], 75%; in assay [4] it was 20%; in assay [5] it was 32%; in [6], 25%. Moreover, the pest or weed control at 33 µg/cm2 in [7] is 100%; in assay [8], 98%; in assay [9], 100%; in assay [10], 100%; in [11], 88%; in assay [12] it was 75%.
For `Cc1cccc(C)c1NCc1nnc(S)n1C` [Compound 3, 3-(2,6-dimethylphenylaminomethyl)-4-methyl-5-mercapto-1,2,4-triazole], the pest or weed control at 5000 µg/mL, 33 µg/cm2 in assay [1], in assay [2], in assay [3], in assay [4], in assay [5] and in assay [6] was 0% each time. Besides, the pest or weed control at 33 µg/cm2 in assay [7], in assay [8], in assay [9], in [10], in assay [11] and in assay [12] was 0% each time.
As for `CCc1cccc(C)c1N(Cc1nnc(C)o1)C(=O)CCl` [Compound 4], the pest or weed control at 5000 µg/mL, 33 µg/cm2 was found to be 50% in assay [1]; 0% in assay [2]; 60% in [3]; 20% in [4]; 0% in [5]; 0% in assay [6]. The pest or weed control at 33 µg/cm2 in [7] was 93%; in assay [8], 10%; in assay [9], 100%; in [10], 100%; in assay [11], 65%; in assay [12] it was 10%.
For `CCc1cccc(CC)c1NCc1nnc(C)[nH]1` [Compound 5A], the pest or weed control at 5000 µg/mL, 33 µg/cm2 in [1], in assay [2], in [3], in assay [4], in [5] and in assay [6] was 0% throughout. The pest or weed control at 33 µg/cm2 in assay [7], in [8], in [9], in [10], in assay [11] and in [12] was 0% each time.
Turning to `CCc1cccc(CC)c1N(Cc1nnc(C)[nH]1)C(=O)CCl` [Compound 5B], the pest or weed control at 11 µg/cm2 in assay [9] turned out to be 100%.
Take `CCc1cccc(C)c1NCc1nnc(C)[nH]1` [Compound 6A]: the pest or weed control at 5000 µg/mL, 33 µg/cm2 in assay [1], in assay [2], in assay [3], in assay [4], in assay [5] and in assay [6] was 0% in each case. The pest or weed control at 33 µg/cm2 in [7], in assay [8], in [9], in [10], in [11] and in assay [12] was 0% throughout.
With `CCc1cccc(C)c1N(Cc1nnc(C)[nH]1)C(=O)CCl` [Compound 6B], the pest or weed control at 11 µg/cm2 in assay [7] stood at 100%.
On to `CCc1nnc(CN(C(=O)CCl)c2c(CC)cccc2CC)[nH]1` [Compound 8B], for which the pest or weed control at 11 µg/cm2 in assay [7] was 99%; in [8] (setting [13]), 100%; in assay [9] it was 100%; in assay [10] (setting [13]) it was 100%; in assay [11] (setting [13]), 90%; in [12] (setting [13]), 83%.
